In patent publication US20240228925A1, “APPARATUS AND METHOD FOR A […] ALVEOLAR LUNG-ON-A-CHIP MODEL” (priority 2021, published 2024):

Each compound was assayed on SARS-COV-2 pseudoviral particle (pCoV-VP).
Assay type: cell-based

Compound | decrease of cytopathic effects of pCoV-VPs (MTS assay)
CCN(CC)Cc1cc(Nc2ccnc3cc(Cl)ccc23)ccc1O [amodiaquine] | approximately 21.4%
CCN(CCO)CCCC(C)Nc1ccnc2cc(Cl)ccc12 (stereo not drawn) [hydroxychloroquine] | ~11.3%
CCC(CC)COC(=O)[C@H](C)N[P@](=O)(OC[C@H]1O[C@@](C#N)(c2ccc3c(N)ncnn23)[C@H](O)[C@@H]1O)Oc1ccccc1 [remdesivir] | ~30.0%
